What was measured:
Assay in all cases: viability relative to DMSO control (fraction); higher = less drug effect (more viable cells)
Details in all cases: 48 h
[1] = system: primary AML patient cells (S055)
Method in brief: (§1)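 Primary mononuclear tumour cells (Ficoll-isolated from blood or bone marrow, or processed lymph node; fresh or cryopreserved) were plated at 4 × 10^4 cells per well in 384-well plates with pre-plated compounds at five concentrations, one well each. Medium was RPMI-1640 with penicillin/streptomycin, L-glutamine and human serum, at 37 °C and 5% CO2 for 48 h. Viability was read as CellTiter-Glo luminescence relative to the median of 16 inner DMSO wells.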

[2] = system: primary AML patient cells (S037)
Method in brief: as §1

[3] = system: primary AML patient cells (S089)
Method in brief: as §1

[4] = system: primary AML patient cells (S019)
Method in brief: as §1

[5] = system: primary AML patient cells (S081)
Method in brief: as §1

[6] = system: primary T-PLL patient cells (S008)
Method in brief: as §1

[7] = system: primary ALL patient cells (S048)
Method in brief: as §1

[8] = system: primary MCL patient cells (S068)
Method in brief: as §1

[9] = system: primary FL patient cells (S022)
Method in brief: as §1

[10] = system: primary AML patient cells (S025)
Method in brief: as §1

[11] = system: primary AML patient cells (S002)
Method in brief: as §1

[12] = system: primary AML patient cells (S091)
Method in brief: as §1

[13] = system: primary AML patient cells (S011)
Method in brief: as §1

[14] = system: primary AML patient cells (S021)
Method in brief: as §1

## CC(C)C[C@H](NC(=O)CNC(=O)c1cc(Cl)ccc1Cl)B(O)O [Ixazomib]
[1]; 0.008 µM
  viability: 0.936
[1]; 0.04 µM
  viability: 0.984
[1]; 0.2 µM
  viability: 0.953
[1]; 1 µM
  viability: 0.992
[1]; 5 µM
  viability: 0.941
[2]; 0.008 µM
  viability: 0.982
[2]; 0.04 µM
  viability: 0.955
[2]; 0.2 µM
  viability: 0.939
[2]; 1 µM
  viability: 0.937
[2]; 5 µM
  viability: 0.955
[3]; 0.008 µM
  viability: 1.07
[3]; 0.04 µM
  viability: 0.69
[3]; 0.2 µM
  viability: 0.968
[3]; 1 µM
  viability: 0.583
[3]; 5 µM
  viability: 0.627
[4]; 0.008 µM
  viability: 0.525
[4]; 0.04 µM
  viability: 0.757
[4]; 0.2 µM
  viability: 0.633
[4]; 1 µM
  viability: 0.786
[4]; 5 µM
  viability: 0.936
[5]; 0.008 µM
  viability: 0.987
[5]; 0.04 µM
  viability: 0.96
[5]; 0.2 µM
  viability: 0.901
[5]; 1 µM
  viability: 0.95
[5]; 5 µM
  viability: 0.981
[6]; 0.008 µM
  viability: 0.924
[6]; 0.04 µM
  viability: 1.01
[6]; 0.2 µM
  viability: 1.09
[6]; 1 µM
  viability: 1.01
[6]; 5 µM
  viability: 0.961
[7]; 0.008 µM
  viability: 1.04
[7]; 0.04 µM
  viability: 0.94
[7]; 0.2 µM
  viability: 0.961
[7]; 1 µM
  viability: 0.994
[7]; 5 µM
  viability: 1.05
[8]; 0.008 µM
  viability: 0.998
[8]; 0.04 µM
  viability: 0.9
[8]; 0.2 µM
  viability: 1.04
[8]; 1 µM
  viability: 1.04
[8]; 5 µM
  viability: 1.05
[9]; 0.008 µM
  viability: 0.894
[9]; 0.04 µM
  viability: 1
[9]; 0.2 µM
  viability: 0.954
[9]; 1 µM
  viability: 0.999
[9]; 5 µM
  viability: 0.979
[10]; 0.008 µM
  viability: 0.932
[10]; 0.04 µM
  viability: 0.95
[10]; 0.2 µM
  viability: 0.952
[10]; 1 µM
  viability: 1.02
[10]; 5 µM
  viability: 1.08
[11]; 0.008 µM
  viability: 0.843
[11]; 0.04 µM
  viability: 0.979
[11]; 0.2 µM
  viability: 0.932
[11]; 1 µM
  viability: 0.972
[11]; 5 µM
  viability: 0.933
[12]; 0.008 µM
  viability: 1.07
[12]; 0.04 µM
  viability: 0.874
[12]; 0.2 µM
  viability: 1.13
[12]; 1 µM
  viability: 0.811
[12]; 5 µM
  viability: 0.8
[13]; 0.008 µM
  viability: 0.957
[13]; 0.04 µM
  viability: 1.15
[13]; 0.2 µM
  viability: 0.891
[13]; 1 µM
  viability: 1.06
[13]; 5 µM
  viability: 1.03
[14]; 0.008 µM
  viability: 0.927
[14]; 0.04 µM
  viability: 1
[14]; 0.2 µM
  viability: 0.983
[14]; 1 µM
  viability: 1.14
[14]; 5 µM
  viability: 1.09
